Assay results: ChEMBL document CHEMBL1130485, “Novel low molecular renin inhibitors which show good oral blood pressure lowering effects in marmosets” (Bioorg Med Chem Lett, 1997)
One block for each compound: values may come before it.

What was measured:
[1] = In vivo blood pressure lowering effects in salt depleted conscious marmosets was determined when a dose of 10mg/Kg, po. at 1 hr; assay type: functional, Callitrichinae
[2] = In vivo blood pressure lowering effects in salt depleted conscious marmosets was determined when a dose of 10mg/Kg, po. at 3h; assay type: functional, Callitrichinae
[3] = molecular target: T1, Renin (Homo sapiens, UniProt P00797); experiment: In vitro renin inhibitory effect was evaluated for plasma renin activity (PRA) of human plasma, Expressed as IC50; assay type: cell-free
T1 sequence (P00797 whole entry): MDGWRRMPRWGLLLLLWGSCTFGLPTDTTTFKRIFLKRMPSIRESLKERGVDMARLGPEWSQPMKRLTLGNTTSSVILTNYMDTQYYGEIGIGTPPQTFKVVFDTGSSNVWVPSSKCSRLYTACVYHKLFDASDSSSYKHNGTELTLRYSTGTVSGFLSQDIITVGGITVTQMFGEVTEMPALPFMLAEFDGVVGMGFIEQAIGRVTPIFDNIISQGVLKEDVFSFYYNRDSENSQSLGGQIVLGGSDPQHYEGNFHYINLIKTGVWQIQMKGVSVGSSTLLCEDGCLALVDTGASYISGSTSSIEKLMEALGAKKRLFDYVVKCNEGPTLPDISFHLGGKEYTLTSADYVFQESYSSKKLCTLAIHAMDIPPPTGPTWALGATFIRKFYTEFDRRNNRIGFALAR

[4] = In vivo blood pressure lowering effects in salt depleted conscious marmosets was determined when a dose of 10mg/Kg, po. at 0.5 hr; assay type: functional, Callitrichinae
[5] = molecular target: Pepsin A (Sus scrofa) (UniProt P00791); experiment: Percent Inhibitory activity against pepsin at the concentration of 100000 nM
Sequence of Pepsin A (Sus scrofa) (P00791 60-385 limits assumed): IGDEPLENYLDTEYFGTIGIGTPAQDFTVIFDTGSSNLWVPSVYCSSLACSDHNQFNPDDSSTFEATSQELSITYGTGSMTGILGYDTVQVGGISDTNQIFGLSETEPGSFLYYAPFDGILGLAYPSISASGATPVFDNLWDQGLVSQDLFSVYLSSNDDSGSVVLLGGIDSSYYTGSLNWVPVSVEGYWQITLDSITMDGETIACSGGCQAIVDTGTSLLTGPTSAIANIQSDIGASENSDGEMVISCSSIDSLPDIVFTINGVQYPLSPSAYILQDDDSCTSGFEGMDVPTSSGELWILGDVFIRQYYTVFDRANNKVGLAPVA

[6] = molecular target: T2, Renin (Rattus norvegicus) (UniProt P08424); experiment: In vitro percent Inhibitory activity against rat plasma renin at the concentration of 100000 nM; assay type: cell-free
T2 sequence (whole entry): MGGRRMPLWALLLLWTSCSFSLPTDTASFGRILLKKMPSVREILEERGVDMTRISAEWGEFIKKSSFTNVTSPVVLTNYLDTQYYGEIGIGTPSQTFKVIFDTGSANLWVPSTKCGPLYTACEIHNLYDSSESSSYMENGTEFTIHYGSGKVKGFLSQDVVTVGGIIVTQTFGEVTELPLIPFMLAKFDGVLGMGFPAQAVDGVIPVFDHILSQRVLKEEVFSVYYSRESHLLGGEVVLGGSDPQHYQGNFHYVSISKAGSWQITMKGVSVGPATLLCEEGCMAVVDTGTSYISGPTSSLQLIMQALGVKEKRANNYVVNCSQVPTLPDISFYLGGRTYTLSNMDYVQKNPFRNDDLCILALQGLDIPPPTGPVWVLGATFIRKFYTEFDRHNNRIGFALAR

[7] = molecular target: T3, Angiotensin-converting enzyme (Homo sapiens, UniProt P12821); experiment: Percent Inhibitory activity against angiotensin-converting enzyme (ACE) human at the concentration of 100000 nM
T3 sequence (P12821 whole entry): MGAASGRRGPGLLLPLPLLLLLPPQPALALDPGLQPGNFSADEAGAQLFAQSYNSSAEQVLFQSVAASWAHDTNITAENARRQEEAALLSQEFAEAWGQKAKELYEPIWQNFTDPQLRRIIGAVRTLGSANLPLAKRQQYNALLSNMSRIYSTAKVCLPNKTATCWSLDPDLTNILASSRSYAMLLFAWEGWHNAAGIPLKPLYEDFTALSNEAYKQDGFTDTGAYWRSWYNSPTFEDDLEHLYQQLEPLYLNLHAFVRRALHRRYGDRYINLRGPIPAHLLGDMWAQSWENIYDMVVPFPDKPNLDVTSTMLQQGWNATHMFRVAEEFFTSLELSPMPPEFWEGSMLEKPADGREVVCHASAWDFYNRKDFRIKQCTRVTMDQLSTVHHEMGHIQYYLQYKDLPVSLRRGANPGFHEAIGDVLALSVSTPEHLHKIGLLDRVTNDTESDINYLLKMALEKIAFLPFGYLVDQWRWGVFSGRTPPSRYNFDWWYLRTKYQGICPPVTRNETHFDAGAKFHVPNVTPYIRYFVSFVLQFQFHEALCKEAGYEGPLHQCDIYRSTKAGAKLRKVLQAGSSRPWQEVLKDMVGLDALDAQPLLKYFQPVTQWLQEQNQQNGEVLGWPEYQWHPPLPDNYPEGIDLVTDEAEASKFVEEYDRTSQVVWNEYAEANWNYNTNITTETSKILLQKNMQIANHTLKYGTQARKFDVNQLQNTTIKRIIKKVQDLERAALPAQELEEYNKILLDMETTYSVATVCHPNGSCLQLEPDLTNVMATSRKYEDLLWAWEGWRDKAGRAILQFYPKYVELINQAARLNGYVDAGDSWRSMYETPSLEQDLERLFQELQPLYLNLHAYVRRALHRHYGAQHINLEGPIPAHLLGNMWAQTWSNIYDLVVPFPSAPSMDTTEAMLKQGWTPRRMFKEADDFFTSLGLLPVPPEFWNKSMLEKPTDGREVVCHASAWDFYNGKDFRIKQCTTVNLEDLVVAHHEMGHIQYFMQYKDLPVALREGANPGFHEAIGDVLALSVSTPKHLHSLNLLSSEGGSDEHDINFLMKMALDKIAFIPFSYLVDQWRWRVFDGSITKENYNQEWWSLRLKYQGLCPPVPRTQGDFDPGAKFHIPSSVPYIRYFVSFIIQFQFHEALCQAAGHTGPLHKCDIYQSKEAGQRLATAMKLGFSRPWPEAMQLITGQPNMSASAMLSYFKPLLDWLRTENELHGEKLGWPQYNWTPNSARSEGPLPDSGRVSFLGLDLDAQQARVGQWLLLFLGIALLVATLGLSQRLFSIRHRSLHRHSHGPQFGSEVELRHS

[8] = molecular target: T4, Cathepsin D (Bos taurus, UniProt P80209); experiment: Inhibitory activity against cathepsin D (bovine), expressed as IC50
T4 sequence (P80209 whole entry): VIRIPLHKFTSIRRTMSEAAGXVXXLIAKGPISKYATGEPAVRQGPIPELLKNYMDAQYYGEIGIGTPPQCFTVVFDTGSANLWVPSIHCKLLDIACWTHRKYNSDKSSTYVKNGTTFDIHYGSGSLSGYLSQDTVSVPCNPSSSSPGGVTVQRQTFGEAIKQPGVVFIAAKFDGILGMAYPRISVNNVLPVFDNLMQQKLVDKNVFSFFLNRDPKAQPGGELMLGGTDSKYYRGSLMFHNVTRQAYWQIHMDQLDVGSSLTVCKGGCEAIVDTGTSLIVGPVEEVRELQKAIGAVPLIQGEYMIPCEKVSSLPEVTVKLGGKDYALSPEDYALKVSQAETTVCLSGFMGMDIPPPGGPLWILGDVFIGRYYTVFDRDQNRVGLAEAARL

[9] = molecular target: T3, Angiotensin-converting enzyme; experiment: Inhibitory activity against ACE human, expressed as IC50
[10] = molecular target: Pepsin A (Sus scrofa, UniProt P00791); experiment: In vitro inhibitory effect was evaluated against pepsin, Expressed as IC50
Sequence of Pepsin A (P00791 whole entry): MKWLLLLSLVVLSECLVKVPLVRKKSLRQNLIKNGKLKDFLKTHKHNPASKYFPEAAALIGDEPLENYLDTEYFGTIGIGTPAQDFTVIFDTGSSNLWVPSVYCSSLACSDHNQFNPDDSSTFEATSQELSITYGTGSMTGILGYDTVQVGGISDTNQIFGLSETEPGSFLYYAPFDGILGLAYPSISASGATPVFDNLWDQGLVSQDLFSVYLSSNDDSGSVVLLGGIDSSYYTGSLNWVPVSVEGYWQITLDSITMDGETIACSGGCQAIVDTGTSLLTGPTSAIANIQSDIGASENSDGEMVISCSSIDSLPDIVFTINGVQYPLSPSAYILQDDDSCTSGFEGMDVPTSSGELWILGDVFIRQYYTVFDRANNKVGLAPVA

- IC50 [3]: 0.013 µM
Compound: CC(C)[C@@H](O)C[C@H](O)[C@H](CC1CCCCC1)NC(=O)[C@H](Cc1c[nH]cn1)NC(=O)c1nc2ccccc2[nH]1
- Delta SBP [1]: -13 mmHg
- Delta SBP [2]: -7 mmHg
- Delta SBP [4]: -9 mmHg

- IC50 [3]: 0.046 µM
Compound: CC(C)[C@@H](O)C[C@H](O)[C@H](CC1CCCCC1)NC(=O)[C@H](Cc1c[nH]cn1)NC(=O)c1cc2cc(F)ccc2[nH]1
- Delta SBP [1]: -21 mmHg
- Delta SBP [2]: -12 mmHg
- Delta SBP [4]: -18 mmHg

- IC50 [3]: 0.6 µM
Compound: CC(C)[C@@H](O)C[C@H](O)[C@H](CC1CCCCC1)NC(=O)[C@H](Cc1cnc[nH]1)NC(=O)c1cc2cc(O)ccc2[nH]1

- inhibition [5]: 5.6%
- inhibition [6]: 41.1%
- inhibition [7]: 6%
Compound: CC(C)[C@@H](O)C[C@H](O)[C@H](CC1CCCCC1)NC(=O)[C@H](Cc1c[nH]cn1)NC(=O)c1cc2ccccc2[nH]1
- Delta SBP [1]: -15 mmHg
- Delta SBP [2]: -13 mmHg
- Delta SBP [4]: -12 mmHg

- IC50 [3]: 0.42 µM
Compound: CC(C)[C@@H](O)C[C@H](O)[C@H](CC1CCCCC1)NC(=O)[C@H](Cc1cnc[nH]1)NC(=O)[C@@H]1Cc2ccccc2CN1

- IC50 [3]: 8.2 µM
Compound: CC(C)[C@@H](O)C[C@H](O)[C@H](CC1CCCCC1)NC(=O)[C@H](Cc1cnc[nH]1)NC(=O)c1cc2ccccc2s1

- IC50 [8]: > 100 µM
- IC50 [9]: > 100 µM
- IC50 [10]: > 100 µM
Compound: CC(C)[C@@H](O)C[C@H](O)[C@H](CC1CCCCC1)NC(=O)[C@H](Cc1cnc[nH]1)NC(=O)c1cc2ccccc2[nH]1

- IC50 [3]: 0.048 µM
Compound: CC(C)[C@@H](O)C[C@H](O)[C@H](CC1CCCCC1)NC(=O)[C@H](Cc1c[nH]cn1)NC(=O)c1cc2ccccc2c(O)n1
- Delta SBP [1]: 1 mmHg
- Delta SBP [2]: 2 mmHg
- Delta SBP [4]: -5 mmHg

- IC50 [3]: 3 µM
Compound: CC(C)[C@@H](O)C[C@H](O)[C@H](CC1CCCCC1)NC(=O)[C@H](Cc1c[nH]cn1)NC(=O)c1ccc[nH]1

- IC50 [3]: 4.4 µM
Compound: CC(C)[C@@H](O)C[C@H](O)[C@H](CC1CCCCC1)NC(=O)[C@H](Cc1cnc[nH]1)NC(=O)C1Cc2ccccc2N1 (stereo in doubt)

- IC50 [3]: 0.34 µM
Compound: CC(=O)n1c(C(=O)N[C@@H](Cc2cnc[nH]2)C(=O)N[C@@H](CC2CCCCC2)[C@@H](O)C[C@H](O)C(C)C)cc2ccccc21

- IC50 [3]: 0.8 µM
Compound: CC(C)[C@@H](O)C[C@H](O)[C@H](CC1CCCCC1)NC(=O)[C@H](Cc1cnc[nH]1)NC(=O)c1cc2cccnc2[nH]1

- IC50 [3]: 0.88 µM
Compound: CC(C)[C@@H](O)C[C@H](O)[C@H](CC1CCCCC1)NC(=O)[C@H](Cc1cnc[nH]1)NC(=O)C1Cc2ccccc2N1 (stereo in doubt; 4)

- IC50 [3]: 0.26 µM
Compound: CC(C)[C@@H](O)C[C@H](O)[C@H](CC1CCCCC1)NC(=O)[C@H](Cc1c[nH]cn1)NC(=O)c1cc2cc(Cl)ccc2[nH]1

- IC50 [3]: 0.79 µM
Compound: CC(C)[C@@H](O)C[C@H](O)[C@H](CC1CCCCC1)NC(=O)[C@H](Cc1c[nH]cn1)NC(=O)c1cc2ccccc2cn1

- IC50 [3]: 0.14 µM
Compound: CC(C)[C@@H](O)C[C@H](O)[C@H](CC1CCCCC1)NC(=O)[C@H](Cc1c[nH]cn1)NC(=O)c1cc2ccccc2o1

- IC50 [3]: 0.00068 µM
Compound: CC(C)[C@@H](O)C[C@H](O)[C@H](CC1CCCCC1)NC(=O)[C@H](Cc1cnc[nH]1)N(C)C(=O)[C@H](Cc1ccccc1)NC(=O)N1CCC(O)CC1
